Test results reported in patent publication US10633419B2, “Immunomodulators” (BRISTOL-MYERS SQUIBB COMPANY, priority 2014, dated 2020).
Read-outs that look alike come from different tables or passages of the source. Starred links: 1 amine or outer side, 2 acyl side, 3 side chain; linkers in the order of their positions; H or OH if unused. Positions of bridges follow the written chain, without caps; N, C: chain ends. Non-standard residues stand in square brackets, D forms with d. Residues, ends and D or L forms follow the SMILES beside them. Groups on a side chain read outwards from the residue. ξ: configuration not given here. *: point of attachment. Dap(Nα-HOOC(CH2)16CO)OH = O=C(O)CCCCCCCCCCCCCCCCC(=O)N[C@@H](CN*)C(=O)O; X25 = CCCCCCCC[C@@H](NC(=O)CCC(=O)NCCCOCCOCCOCCCN*)C(=O)O; Trp(1-CH2COOH) = N[C@@H](Cc1cn(CC(=O)O)c2ccccc12)C(=O)O; X14 = O=C(O)CCCCCCCCCCNC(=O)CCC(=O)NCCCOCCOCCOCCCN*; γGlu = O=C(O)[C@H](CCC(=O)[*:2])N[*:1]; d(cisHyp) = O=C(O)[C@H]1C[C@@H](O)CN1; NH(CH2)12COOH = O=C(O)CCCCCCCCCCCCN*; Gly(octyl) = CCCCCCCC[C@H](N)C(=O)O; ξPro(4R-OH) = O=C(O)C1C[C@@H](O)CN1; PEG6 = NCCOCCOCCOCCOCCOCCOCCC(=O)O; Hyp = O=C(O)[C@@H]1C[C@@H](O)CN1; Myristoyl = CCCCCCCCCCCCCC(=O)*; NMeNle = CCCC[C@H](NC)C(=O)O; Pip = O=C(O)[C@@H]1CCCCN1; NMeA = CN[C@@H](C)C(=O)O; Pra = C#CC[C@H](N)C(=O)O; Aun = NCCCCCCCCCCC(=O)O; Dab = NCC[C@H](N)C(=O)O; Dap = NC[C@H](N)C(=O)O

Molecular target: T1, PD-L1 (Homo sapiens, UniProt Q9NZQ7)
T1 construct: hPDL1(19-239)-TVMV-His; made in house; host or cells: HEK293T
T1 sequence (Q9NZQ7 with tags, fused parts or gaps): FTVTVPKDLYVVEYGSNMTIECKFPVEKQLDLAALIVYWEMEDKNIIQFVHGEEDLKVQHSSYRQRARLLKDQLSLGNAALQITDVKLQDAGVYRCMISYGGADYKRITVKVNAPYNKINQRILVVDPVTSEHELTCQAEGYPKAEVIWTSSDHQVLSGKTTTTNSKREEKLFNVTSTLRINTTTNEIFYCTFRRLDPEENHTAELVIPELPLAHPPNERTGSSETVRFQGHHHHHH
Assay: PD-1/PD-L1 Homogenous Time-Resolved Fluorescence (HTRF) binding assay (PD-1-Ig/PD-L1-His)
Settings: inhibition of PD-1-Ig binding to PD-L1-TVMV-His, read-out: HTRF IC50
Summary of the method: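 Inhibitors pre-incubated 15 min with PD-L1-His (10 nM final), then PD-1-Ig (20 nM final) added for 15 min in dPBS/0.1% BSA/0.05% Tween-20. Eu-cryptate anti-Ig (1 nM) and APC anti-His (20 nM) added, 30 min equilibration, 665/620 nm HTRF ratio read.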

IC50 (value given as number) [nM]	IC50 (value given as range class) [nM]	Structure (SMILES)
12.7		CCCC[C@H]1C(=O)N(C)[C@@H](CCCC)C(=O)N[C@@H](CCC(=O)O)C(=O)N[C@H](C(=O)NCCCOCCOCCOCCCNC(=O)CCC(=O)NCCCCCCCCCCC(=O)O)CSCC(=O)N[C@@H](Cc2ccc(O)cc2)C(=O)N(C)[C@@H](C)C(=O)N[C@@H](CC(N)=O)C(=O)N2CCC[C@H]2C(=O)N[C@@H](Cc2cnc[nH]2)C(=O)N[C@@H](CCCCN)C(=O)N2C[C@H](O)C[C@H]2C(=O)N[C@@H](Cc2c[nH]c3ccccc23)C(=O)N[C@@H](CO)C(=O)N[C@@H](Cc2cn(CC(=O)O)c3ccccc23)C(=O)N1C [Example 11080] ({CH2CO}-Y[NMeA]NPHK[Hyp]WS[Trp(1-CH2COOH)][NMeNle][NMeNle]EC-X14; thioether N-14)
	100 to 1600	CCCC[C@H]1C(=O)N(C)[C@@H](CCCC)C(=O)N[C@@H](CC(C)C)C(=O)N[C@H](C(=O)NCC(=O)NCC(=O)N[C@@H](Cc2cn(CC[C@H](NC(=O)CCCCCCCCCCCCCCCCC(=O)O)C(=O)O)nn2)C(=O)O)CSCC(=O)N[C@@H](Cc2ccc(O)cc2)C(=O)N(C)[C@@H](C)C(=O)N[C@@H](CC(N)=O)C(=O)N2CCC[C@H]2C(=O)N[C@@H](CN)C(=O)N[C@@H](CC(C)C)C(=O)N2C[C@H](O)C[C@H]2C(=O)N[C@@H](Cc2c[nH]c3ccccc23)C(=O)N[C@@H](CCN)C(=O)N[C@@H](Cc2cn(CC(=O)O)c3ccccc23)C(=O)N1C [Example 13122]
	100 to 1600	CCCC[C@H]1C(=O)N(C)[C@@H](CCCC)C(=O)N[C@@H](CC(C)C)C(=O)N[C@H](C(=O)NCC(=O)N[C@@H](CCC(=O)O)C(=O)NCCOCCOCCOCCOCCOCCOCCC(=O)NC[C@H](NC(=O)CCCCCCCCCCCCCCCCC(=O)O)C(=O)O)CSCC(=O)N[C@@H](Cc2ccc(O)cc2)C(=O)N(C)[C@@H](C)C(=O)N[C@@H](CC(N)=O)C(=O)N2CCC[C@H]2C(=O)N[C@@H](CN)C(=O)N[C@@H](CC(C)C)C(=O)N2C[C@H](O)CC2C(=O)N[C@@H](Cc2c[nH]c3ccccc23)C(=O)N[C@@H](CCN)C(=O)N[C@@H](Cc2cn(CC(=O)O)c3ccccc23)C(=O)N1C (stereo partly drawn) [Example 11182] ({CH2CO}-Y[NMeA]NP[Dap]L[ξPro(4R-OH)]W[Dab][Trp(1-CH2COOH)][NMeNle][NMeNle]LCGE[PEG6]-{Dap(Nα-HOOC(CH2)16CO)OH}; thioether N-14)
13		CCCCCCCC[C@H](NC(=O)CCCCCCCCCCNC(=O)[C@@H]1CSCC(=O)N[C@@H](Cc2ccc(O)cc2)C(=O)N(C)[C@@H](C)C(=O)N[C@@H](CC(N)=O)C(=O)N2CCC[C@H]2C(=O)N[C@@H](CN)C(=O)N[C@@H](CC(C)C)C(=O)N2C[C@H](O)C[C@H]2C(=O)N[C@@H](Cc2c[nH]c3ccccc23)C(=O)N[C@@H](CCN)C(=O)N[C@@H](Cc2cn(CC(=O)O)c3ccccc23)C(=O)N(C)[C@@H](CCCC)C(=O)N(C)[C@@H](CCCC)C(=O)N[C@@H](CC(C)C)C(=O)N1)C(=O)O [Example 11102] ({CH2CO}-Y[NMeA]NP[Dap]L[Hyp]W[Dab][Trp(1-CH2COOH)][NMeNle][NMeNle]LC[Aun][Gly(octyl)]-OH; thioether N-14)
	10 to 99	CCCC[C@H]1C(=O)N(C)[C@@H](CCCC)C(=O)N[C@@H](CC(C)C)C(=O)N[C@H](C(=O)NCCCOCCOCCOCCCNC(=O)CCC(=O)NCCCCCCCCCCC(=O)O)CSCC(=O)N[C@@H](Cc2ccc(O)cc2)C(=O)N(C)[C@@H](C)C(=O)N[C@@H](CC(N)=O)C(=O)N2CCC[C@H]2C(=O)N[C@@H](Cc2cnc[nH]2)C(=O)N[C@@H](CCC(=O)O)C(=O)N2C[C@H](O)C[C@H]2C(=O)N[C@@H](Cc2c[nH]c3ccccc23)C(=O)N[C@@H](CO)C(=O)N[C@@H](Cc2c[nH]c3ccccc23)C(=O)N1C [Example 11073] ({CH2CO}-Y[NMeA]NPHE[Hyp]WSW[NMeNle][NMeNle]LC-X14; thioether N-14)
	0.3 to 9.9	CCCC[C@H]1C(=O)N(C)[C@@H](CCCC)C(=O)N[C@@H](CCCNC(=N)N)C(=O)N[C@H](C(=O)NCC(=O)NCC(=O)NCCCCCCCCCCC(=O)O)CSCC(=O)N[C@@H](Cc2ccc(O)cc2)C(=O)N(C)[C@@H](C)C(=O)N[C@@H](CC(=O)O)C(=O)N2CCC[C@H]2C(=O)N[C@@H](Cc2cnc[nH]2)C(=O)N[C@@H](CC(C)C)C(=O)N2C[C@H](O)C[C@H]2C(=O)N[C@@H](Cc2c[nH]c3ccccc23)C(=O)N[C@@H](CO)C(=O)N[C@@H](Cc2c[nH]c3ccccc23)C(=O)N1C [Example 11071] ({CH2CO}-Y[NMeA]DPHL[Hyp]WSW[NMeNle][NMeNle]RCGG[Aun]-OH; thioether N-14)
14		CCCC[C@H]1C(=O)N(C)[C@@H](CCCC)C(=O)N[C@@H](CC(C)C)C(=O)N[C@H](C(=O)NCC(=O)N[C@@H](Cc2cn(CCOCCOCCOCCOCCOCCOCCOCCOCCOCCOCCOCCNC(=O)C[C@H](NC(=O)CCCCCCCCCCCCCCCCC(=O)O)C(=O)O)nn2)C(=O)O)CSCC(=O)N[C@@H](Cc2ccc(O)cc2)C(=O)N(C)[C@@H](C)C(=O)N[C@@H](CC(N)=O)C(=O)N2CCC[C@H]2C(=O)N[C@@H](CN)C(=O)N[C@@H](CC(C)C)C(=O)N2C[C@H](O)C[C@H]2C(=O)N[C@@H](Cc2c[nH]c3ccccc23)C(=O)N[C@@H](CCN)C(=O)N[C@@H](Cc2cn(CC(=O)O)c3ccccc23)C(=O)N1C [Example 14103]
	10 to 99	CCCCCCCC[C@@H](NC(=O)CCC(=O)NCCCOCCOCCOCCCNC(=O)[C@@H]1CSCC(=O)N[C@@H](Cc2ccc(O)cc2)C(=O)N(C)[C@@H](C)C(=O)N[C@@H](CC(N)=O)C(=O)N2CCC[C@H]2C(=O)N[C@@H](CN)C(=O)N[C@@H](CC(C)C)C(=O)N2C[C@H](O)C[C@H]2C(=O)N[C@@H](Cc2c[nH]c3ccccc23)C(=O)N[C@@H](CCN)C(=O)N[C@@H](Cc2cn(CC(=O)O)c3ccccc23)C(=O)N(C)[C@@H](CCCC)C(=O)N(C)[C@@H](CCCC)C(=O)N[C@@H](CC(C)C)C(=O)N1)C(=O)O [Example 11135] ({CH2CO}-Y[NMeA]NP[Dap]L[Hyp]W[Dab][Trp(1-CH2COOH)][NMeNle][NMeNle]LC-X25; thioether N-14)
	10 to 99	CCCCCCCCCCCCCC(=O)N[C@@H](CCC(=O)NCCCC[C@H](NC(=O)CNC(=O)CNC(=O)CNC(=O)[C@@H]1CSCC(=O)N[C@@H](Cc2ccc(O)cc2)C(=O)N(C)[C@@H](C)C(=O)N[C@@H](CC(N)=O)C(=O)N2CCC[C@H]2C(=O)N[C@@H](Cc2cnc[nH]2)C(=O)N[C@@H](CC(C)C)C(=O)N2C[C@H](O)C[C@H]2C(=O)N[C@@H](Cc2c[nH]c3ccccc23)C(=O)N[C@@H](CO)C(=O)N[C@@H](Cc2c[nH]c3ccccc23)C(=O)N(C)[C@@H](CCCC)C(=O)N(C)[C@@H](CCCC)C(=O)N[C@@H](CCCNC(=N)N)C(=O)N1)C(N)=O)C(=O)O [Example 11116] ({CH2CO}-Y[NMeA]NPHL[Hyp]WSW[NMeNle][NMeNle]RCGGGK([γGlu-Myristoyl])-NH2; thioether N-14)
	0.3 to 9.9	C#CC[C@H](NC(=O)CNC(=O)[C@@H]1CSCC(=O)N[C@@H](Cc2ccc(O)cc2)C(=O)N2CCCC[C@H]2C(=O)N[C@@H](CC(N)=O)C(=O)N2CCC[C@H]2C(=O)N[C@@H](CN)C(=O)N[C@@H](CC(C)C)C(=O)N2C[C@H](O)C[C@H]2C(=O)N[C@@H](Cc2c[nH]c3ccccc23)C(=O)N[C@@H](CCN)C(=O)N[C@@H](Cc2cn(CC(=O)O)c3ccccc23)C(=O)N(C)[C@@H](CCCC)C(=O)N(C)[C@@H](CCCC)C(=O)N[C@@H](CC(C)C)C(=O)N1)C(=O)O [INT130AI] ({CH2CO}-Y[Pip]NP[Dap]L[Hyp]W[Dab][Trp(1-CH2COOH)][NMeNle][NMeNle]LCG[Pra]-OH; thioether N-14)
	10 to 99	CCCC[C@H]1C(=O)N(C)[C@@H](CCCC)C(=O)N[C@@H](CC(C)C)C(=O)N[C@H](C(=O)NCC(=O)N[C@@H](CC(=O)O)C(=O)N[C@@H](CC(=O)O)C(=O)NCCCCCCCCCCCCC(=O)O)CSCC(=O)N[C@@H](Cc2ccc(O)cc2)C(=O)N(C)[C@@H](C)C(=O)N[C@@H](CC(=O)O)C(=O)N2CCC[C@H]2C(=O)N[C@@H](Cc2cnc[nH]2)C(=O)N[C@@H](CCCCN)C(=O)N2C[C@H](O)C[C@H]2C(=O)N[C@@H](Cc2c[nH]c3ccccc23)C(=O)N[C@@H](CCCCN)C(=O)N[C@@H](Cc2cn(CC(=O)O)c3ccccc23)C(=O)N1C [Example 11218] ({CH2CO}-Y[NMeA]DPHK[Hyp]WK[Trp(1-CH2COOH)][NMeNle][NMeNle]LCGDD-{NH(CH2)12COOH}; thioether N-14)
	100 to 1600	CCCC[C@H]1C(=O)N(C)[C@@H](CCCC)C(=O)N[C@@H](CC(C)C)C(=O)N[C@H](C(=O)NCCOCCOCCOCCOCCOCCOCCC(=O)NCCCCCCCCCCC(=O)O)CSCC(=O)N[C@@H](Cc2ccc(O)cc2)C(=O)N(C)[C@@H](C)C(=O)N[C@@H](CC(N)=O)C(=O)N2CCC[C@H]2C(=O)N[C@@H](CN)C(=O)N[C@@H](CCC(N)=O)C(=O)N2C[C@H](O)C[C@@H]2C(=O)N[C@@H](Cc2c[nH]c3ccccc23)C(=O)N[C@@H](CCN)C(=O)N[C@@H](Cc2cn(CC(=O)O)c3ccccc23)C(=O)N1C [Example 11061] ({CH2CO}-Y[NMeA]NP[Dap]Q[d(cisHyp)]W[Dab][Trp(1-CH2COOH)][NMeNle][NMeNle]LC[PEG6][Aun]-OH; thioether N-14)
	10 to 99	CCCC[C@H]1C(=O)N(C)[C@@H](CCCC)C(=O)N[C@@H](CC(C)C)C(=O)C[C@H](C(=O)NCC(=O)N[C@@H](CC(=O)O)C(=O)NC[C@H](NC(=O)CCCCCCCCCCCCCCCCC(=O)O)C(=O)O)CSCC(=O)N[C@@H](Cc2ccc(O)cc2)C(=O)N(C)[C@@H](C)C(=O)N[C@@H](CC(N)=O)C(=O)N2CCC[C@H]2C(=O)N[C@@H](CN)C(=O)N[C@@H](CC(C)C)C(=O)N2C[C@H](O)C[C@H]2C(=O)N[C@@H](Cc2c[nH]c3ccccc23)C(=O)N[C@@H](CCN)C(=O)N[C@@H](Cc2cn(CC(=O)O)c3ccccc23)C(=O)N1C [Example 11185]
